{"source": "patent US10683276B2", "about": "“Heterocycle-substituted bicyclic azole pesticides” (FMC Corporation, priority 2015, dated 2020)", "format_in_all_cases": "in vivo", "key": {"[1]": {"system": "Western Flower Thrips (Frankliniellla occidentalis (Pergande))", "assay": "Test F: control of Western Flower Thrips, spray on Soleil bean plant", "conditions": "sprayed at 250 ppm; adult thrips on Soleil bean plant; held for 6 days", "method": "For evaluating control of the Western Flower Thrips (Frankliniellla occidentalis (Pergande)) through contact and/or systemic means, the test unit consisted of a small open container with a 5-7-day-old Soleil bean plant inside.\nTest compounds were formulated and sprayed at 250 and/or 50 ppm. After spraying, the test units were allowed to dry for 1 hour, and then 22-27 adult thrips were added to each unit. A black, screened cap was placed on top, and the test units were held for 6 days at 25° C. and 45-55% relative humidity."}, "[2]": {"system": "diamondback moth (Plutella xylostella (L.))", "assay": "Test A: control of diamondback moth, foliar spray on mustard plant", "conditions": "sprayed at 250 ppm; neonate larvae on mustard plant; assessed after 6 days", "method": "(§1) Test compounds were formulated using a solution containing 10% acetone, 90% water and 300 ppm X-77® Spreader Lo-Foam Formula non-ionic surfactant containing alkylarylpolyoxyethylene, free fatty acids, glycols and isopropanol (Loveland Industries, Inc. Greeley, Colo., USA). The formulated compounds were applied in 1 mL of liquid through a SUJ2 atomizer nozzle with ⅛ JJ custom body (Spraying Systems Co. Wheaton, Ill., USA) positioned 1.27 cm (0.5 inches) above the top of each test unit. Test compounds were sprayed at the rates indicated, and each test was replicated three times.\nFor evaluating control of diamondback moth (Plutella xylostella (L.)) the test unit consisted of a small open container with a 12-14-day-old mustard plant inside. This was pre-infested with ˜50 neonate larvae that were dispensed into the test unit via corn cob grits using an inoculator. The larvae moved onto the test plant after being dispensed into the test unit.\nTest compounds were formulated and sprayed at 250 and/or 50 ppm. After spraying of the formulated test compound, each test unit was allowed to dry for 1 hour and then a black, screened cap was placed on top. The test units were held for 6 days in a growth chamber at 25° C. and 70% relative humidity. Plant feeding damage was then visually assessed based on foliage consumed, and larvae were assessed for mortality."}, "[3]": {"system": "sweetpotato whitefly (Bemisia tabaci (Gennadius))", "assay": "Test E: control of sweetpotato whitefly, spray on cotton plant", "conditions": "sprayed at 50 ppm; eggs on cotton plant; assessed after 13 days", "method": "as §1\nFor evaluating control of the sweetpotato whitefly (Bemisia tabaci (Gennadius)) through contact and/or systemic means, the test unit consisted of a small open container with a 12-14-day-old cotton plant inside. Prior to the spray application, both cotyledons were removed from the plant, leaving one true leaf for the assay. Adult whiteflies were allowed to lay eggs on the plant and then were removed from the test unit. Cotton plants infested with at least 15 eggs were submitted to the test for spraying.\nTest compounds were formulated and sprayed at 250 and/or 50 ppm. After spraying, the test units were allowed to dry for 1 hour. […] Each test unit was then visually assessed for insect mortality."}, "[4]": {"system": "green peach aphid (Myzus persicae (Sulzer))", "assay": "Test C: control of green peach aphid, spray on radish plant", "conditions": "144 h, sprayed at 50 ppm, assessed after 6 days", "method": "as §1\nFor evaluating control of green peach aphid (Myzus persicae (Sulzer)) through contact and/or systemic means, the test unit consisted of a small open container with a 12-15-day-old radish plant inside. This was pre-infested by placing on a leaf of the test plant 30-40 aphids on a piece of leaf excised from a culture plant (cut-leaf method). The aphids moved onto the test plant as the leaf piece desiccated. After pre-infestation, the soil of the test unit was covered with a layer of sand.\nTest compounds were formulated and sprayed at 250 and/or 50 ppm. After spraying of the formulated test compound, each test unit was allowed to dry for 1 hour and then a black, screened cap was placed on top. […] Each test unit was then visually assessed for insect mortality."}, "[5]": {"system": "cotton melon aphid (Aphis gossypii (Glover))", "assay": "Test D: control of cotton melon aphid, spray on cotton plant", "conditions": "144 h, sprayed at 50 ppm, assessed after 6 days", "method": "as §1\nFor evaluating control of cotton melon aphid (Aphis gossypii (Glover)) through contact and/or systemic means, the test unit consisted of a small open container with a 6-7-day-old cotton plant inside. This was pre-infested with 30-40 insects on a piece of leaf according to the cut-leaf method, and the soil of the test unit was covered with a layer of sand.\nTest compounds were formulated and sprayed at 250 and/or 50 ppm. After spraying, the test units were maintained in a growth chamber for 6 days at 19° C. and 70% relative humidity. Each test unit was then visually assessed for insect mortality."}}, "data": [{"compound": "CONC(=O)C(C)(C)NC(=O)c1cccc2nn(-c3cccnc3)cc12", "note": "[Compound 48]", "values": [{"measurement": "control efficacy (30% or less plant damage and/or 100% mortality)", "setting": "[1]", "value": "very good to excellent levels of control efficacy"}]}, {"compound": "CON(C)C(=O)C(C)(C)NC(=O)c1cccc2nn(-c3cccnc3)cc12", "note": "[Compound 47]", "values": [{"measurement": "control efficacy (30% or less plant damage and/or 100% mortality)", "setting": "[1]", "value": "very good to excellent levels of control efficacy"}]}, {"compound": "CN(C)C(=O)C(C)(C)NC(=O)C(C)(C)NC(=O)c1cccc2nn(-c3cccnc3)cc12", "note": "[Compound 2]", "values": [{"measurement": "control efficacy (40% or less feeding damage and/or 100% mortality)", "setting": "[2]", "value": "very good to excellent levels of control efficacy"}]}, {"compound": "CC(C)(NC(=O)c1cccc2nn(-c3cccnc3)cc12)C(=O)NCc1ccccn1", "note": "[Compound 26]", "values": [{"measurement": "mortality", "setting": "[3]", "value": "at least 50%"}]}, {"compound": "CC(C)(NC(=O)c1cccc2nn(-c3cccnc3)cc12)C(=O)NCc1ccccc1", "note": "[Compound 25, N-[1,1-dimethyl-2-oxo-2-[(phenylmethyl)amino]ethyl]-2-(3-pyridinyl)-2H-indazole-4-carboxamide]", "values": [{"measurement": "mortality at 50 ppm", "setting": "[4]", "value": "≥ 80", "unit": "%"}, {"measurement": "mortality at 50 ppm", "setting": "[5]", "value": "≥ 80", "unit": "%"}]}, {"compound": "CC(C)(NC(=O)c1cccc2nn(-c3cccnc3)cc12)C(=O)NC1CCC1", "note": "[Compound 43]", "values": [{"measurement": "control efficacy (30% or less plant damage and/or 100% mortality)", "setting": "[1]", "value": "very good to excellent levels of control efficacy"}]}]}
